Experimental data reported in patent US20160120979A1, “METHOD OF APPLYING A COMPOSITION AND PHARMACEUTICAL COMPOSITION WITH A REGIMEN OF ADMINISTERING IT” (priority 2013, published 2016).

How the values were obtained:
[1] = system: multi-drug resistant MU 50 bacterial cells; experiment: Experiment 1: killing of MU50 by antibiotic with/without riboflavin and UVA 365 nm (CFU); format: cell-based, Staphylococcus aureus
Procedure: The first experiment compares the effect of two antibiotics incubated with multi-drug resistant MU 50 bacterial cells accompanied by exposure to UVA light at 365 nm. […] Furthermore, the antibiotics were administered in the presence and absence of riboflavin, to test the free radical effect of riboflavin.
After addition of the antibiotic and optionally riboflavin to the bacterial samples they were incubated for 1 or for 30 minutes in Experiment 1A and for 30 minutes in Experiment 1B prior to the UV-A exposure at 365 nm with 9 mW/cm^2 for 10 minutes.
In Experiment 1B the added antibiotic was tobramycin at a concentration of 135 μg/ml.

[2] = system: Acinetobacter; experiment: Experiment 12: replication on antibiotic agar after pulsed 400 nm irradiation; format: cell-based; details: 24 hours incubation; for C: Acinetobacter (no irradiation), replication: antibiotic 10 mg/l in MH agar; for D Acinetobacter (irradiation), replication: antibiotic 10 mg/l, 400 nm LED pulses 0.02 ms, 1 kHz, 10 minutes
Procedure: (§1) 15′000′000 multi-resistant bacteriae (0.050 ml of a McFarland of 1) were put on 40 mm diameter petri dishes. The petri dishes comprised MH agar with or without antibiotic.
(§2) […]. The LED power during 0.02 ms was measured to be 0.63 W on a Thorlabs power sensor with a surface area of 2.2×2.2 mm representing a power of 13 mW/cm^2.

[3] = system: Pseudomonas aeruginosa; experiment: as above; format: cell-based; details: 24 hours incubation; for A: Pseudomonas aeruginosa (no irradiation), replication: antibiotic 10 mg/l in MH agar; for B: Pseudomonas aeruginosa (irradiation), replication: antibiotic 10 mg/l, 400 nm LED pulses 0.02 ms, 1 kHz, 10 minutes
Procedure: as §1, §2

[4] = system: Staphylococcus aureus MU500; experiment: as above; format: cell-based; details: 24 hours incubation; for E: Staphylococcus aureus MU500 (no irradiation), replication: antibiotic 10 mg/l in MH agar; for F: Staphylococcus aureus MU500 (irradiation), replication: antibiotic 10 mg/l, 400 nm LED pulses 0.02 ms, 1 kHz, 10 minutes
Procedure: as §1
The LED power during 0.02 ms was measured to be 0.63 W on a Thorlabs power sensor with a surface area of 2.2×2.2 mm representing a power of 13 mW/cm^2.

[5] = ofloxacin 240 μg/ml, incubation 1 min, no riboflavin, no UVA
[6] = ofloxacin 240 μg/ml, incubation 1 min, no riboflavin, with UVA 365 nm 9 mW/cm^2 10 min
[7] = ofloxacin 240 μg/ml, incubation 1 min, with riboflavin, no UVA
[8] = ofloxacin 240 μg/ml, incubation 1 min, with riboflavin, with UVA 365 nm 9 mW/cm^2 10 min
[9] = ofloxacin 240 μg/ml, incubation 30 min, no riboflavin, no UVA
[10] = ofloxacin 240 μg/ml, incubation 30 min, no riboflavin, with UVA 365 nm 9 mW/cm^2 10 min
[11] = ofloxacin 240 μg/ml, incubation 30 min, with riboflavin, no UVA
[12] = ofloxacin 240 μg/ml, incubation 30 min, with riboflavin, with UVA 365 nm 9 mW/cm^2 10 min
[13] = tobramycin 135 μg/ml, incubation 30 min, no riboflavin, with UVA 365 nm 9 mW/cm^2 10 min
[14] = tobramycin 135 μg/ml, incubation 30 min, with riboflavin, with UVA 365 nm 9 mW/cm^2 10 min

SMILES: CC1COc2c(N3CCN(C)CC3)c(F)cc3c(=O)c(C(=O)O)cn1c23 (stereo not shown) [Ofloxacin]
- CFU first run [1, 5]: 505 CFU
- CFU second run [1, 5]: 351 CFU
- Killed first run [1, 5]: 12%
- Killed second run [1, 5]: 14%
- CFU first run [1, 6]: 9 CFU
- CFU second run [1, 6]: 9 CFU
- Killed first run [1, 6]: 98%
- Killed second run [1, 6]: 98%
- CFU first run [1, 7]: 574 CFU
- CFU second run [1, 7]: 391 CFU
- Killed first run [1, 7]: 0%
- Killed second run [1, 7]: 4%
- CFU first run [1, 8]: 144 CFU
- CFU second run [1, 8]: 98 CFU
- Killed first run [1, 8]: 75%
- Killed second run [1, 8]: 76%
- CFU first run [1, 9]: 490 CFU
- CFU second run [1, 9]: 350 CFU
- Killed first run [1, 9]: 15%
- Killed second run [1, 9]: 14%
- CFU first run [1, 10]: 7 CFU
- CFU second run [1, 10]: 15 CFU
- Killed first run [1, 10]: 99%
- Killed second run [1, 10]: 96%
- CFU first run [1, 11]: 570 CFU
- CFU second run [1, 11]: 363 CFU
- Killed first run [1, 11]: 1%
- Killed second run [1, 11]: 11%
- CFU first run [1, 12]: 171 CFU
- CFU second run [1, 12]: 193 CFU
- Killed first run [1, 12]: 70%
- Killed second run [1, 12]: 53%
- C: Acinetobacter (no irradiation), replication [2]: R (Bacteria can replicate after the treatment)
- D Acinetobacter (irradiation), replication [2]: NR (No replication)
- A: Pseudomonas aeruginosa (no irradiation), replication [3]: R (Bacteria can replicate after the treatment)
- B: Pseudomonas aeruginosa (irradiation), replication [3]: NR (No replication)
- E: Staphylococcus aureus MU500 (no irradiation), replication [4]: R (Bacteria can replicate after the treatment)
- F: Staphylococcus aureus MU500 (irradiation), replication [4]: PR (Bacteria can replicate partially)

SMILES: NC[C@H]1O[C@H](O[C@H]2[C@H](O)[C@@H](O[C@H]3O[C@H](CO)[C@@H](O)[C@H](N)[C@H]3O)[C@H](N)C[C@@H]2N)[C@H](N)C[C@@H]1O [Tobramycin]
- CFU first run [1, 13]: 416 CFU
- CFU second run [1, 13]: 481 CFU
- Killed first run [1, 13]: 36%
- Killed second run [1, 13]: 25%
- CFU first run [1, 14]: 144 CFU
- CFU second run [1, 14]: 159 CFU
- Killed first run [1, 14]: 78%
- Killed second run [1, 14]: 75%
- C: Acinetobacter (no irradiation), replication [2]: R (Bacteria can replicate after the treatment)
- D Acinetobacter (irradiation), replication [2]: R (Bacteria can replicate after the treatment)
- A: Pseudomonas aeruginosa (no irradiation), replication [3]: R (Bacteria can replicate after the treatment)
- B: Pseudomonas aeruginosa (irradiation), replication [3]: NR (No replication)
- E: Staphylococcus aureus MU500 (no irradiation), replication [4]: R (Bacteria can replicate after the treatment)
- F: Staphylococcus aureus MU500 (irradiation), replication [4]: R (Bacteria can replicate after the treatment)

SMILES: CN(C)c1ccc(O)c2c1C[C@H]1C[C@H]3[C@H](N(C)C)C(O)=C(C(N)=O)C(=O)[C@@]3(O)C(O)=C1C2=O [Minocycline]
- C: Acinetobacter (no irradiation), replication [2]: R (Bacteria can replicate after the treatment)
- D Acinetobacter (irradiation), replication [2]: NR (No replication)
- A: Pseudomonas aeruginosa (no irradiation), replication [3]: R (Bacteria can replicate after the treatment)
- B: Pseudomonas aeruginosa (irradiation), replication [3]: NR (No replication)
- E: Staphylococcus aureus MU500 (no irradiation), replication [4]: R (Bacteria can replicate after the treatment)
- F: Staphylococcus aureus MU500 (irradiation), replication [4]: NR (No replication)

SMILES: CN(C)[C@@H]1C(O)=C(C(=O)NCNCCCC[C@H](N)C(=O)O)C(=O)[C@@]2(O)C(O)=C3C(=O)c4c(O)cccc4[C@@](C)(O)[C@H]3C[C@@H]12 [Lymecycline]
- C: Acinetobacter (no irradiation), replication [2]: R (Bacteria can replicate after the treatment)
- D Acinetobacter (irradiation), replication [2]: NR (No replication)
- A: Pseudomonas aeruginosa (no irradiation), replication [3]: R (Bacteria can replicate after the treatment)
- B: Pseudomonas aeruginosa (irradiation), replication [3]: NR (No replication)
- E: Staphylococcus aureus MU500 (no irradiation), replication [4]: R (Bacteria can replicate after the treatment)
- F: Staphylococcus aureus MU500 (irradiation), replication [4]: NR (No replication)

SMILES: COc1c(N2CCNC(C)C2)c(F)cc2c(=O)c(C(=O)O)cn(C3CC3)c12 (stereo not shown) [Gatifloxacin]
- C: Acinetobacter (no irradiation), replication [2]: R (Bacteria can replicate after the treatment)
- D Acinetobacter (irradiation), replication [2]: NR (No replication)
- A: Pseudomonas aeruginosa (no irradiation), replication [3]: R (Bacteria can replicate after the treatment)
- B: Pseudomonas aeruginosa (irradiation), replication [3]: NR (No replication)
- E: Staphylococcus aureus MU500 (no irradiation), replication [4]: R (Bacteria can replicate after the treatment)
- F: Staphylococcus aureus MU500 (irradiation), replication [4]: PR (Bacteria can replicate partially)

SMILES: C[C@H]1COc2c(N3CCN(C)CC3)c(F)cc3c(=O)c(C(=O)O)cn1c23 [Levofloxacin]
- C: Acinetobacter (no irradiation), replication [2]: R (Bacteria can replicate after the treatment)
- D Acinetobacter (irradiation), replication [2]: NR (No replication)
- A: Pseudomonas aeruginosa (no irradiation), replication [3]: R (Bacteria can replicate after the treatment)
- B: Pseudomonas aeruginosa (irradiation), replication [3]: NR (No replication)
- E: Staphylococcus aureus MU500 (no irradiation), replication [4]: R (Bacteria can replicate after the treatment)
- F: Staphylococcus aureus MU500 (irradiation), replication [4]: PR (Bacteria can replicate partially)

SMILES: CN(C)c1cc(NC(=O)CNC(C)(C)C)c(O)c2c1C[C@H]1C[C@H]3[C@H](N(C)C)C(O)=C(C(N)=O)C(=O)[C@@]3(O)C(O)=C1C2=O [Tigecycline]
- C: Acinetobacter (no irradiation), replication [2]: R (Bacteria can replicate after the treatment)
- D Acinetobacter (irradiation), replication [2]: NR (No replication)
- A: Pseudomonas aeruginosa (no irradiation), replication [3]: R (Bacteria can replicate after the treatment)
- B: Pseudomonas aeruginosa (irradiation), replication [3]: NR (No replication)
- E: Staphylococcus aureus MU500 (no irradiation), replication [4]: R (Bacteria can replicate after the treatment)
- F: Staphylococcus aureus MU500 (irradiation), replication [4]: NR (No replication)

SMILES: CN(C)[C@@H]1C(O)=C(C(N)=O)C(=O)[C@@]2(O)C(O)=C3C(=O)c4c(O)cccc4[C@@](C)(O)[C@H]3[C@H](O)[C@@H]12 [Oxytetracycline]
- C: Acinetobacter (no irradiation), replication [2]: R (Bacteria can replicate after the treatment)
- D Acinetobacter (irradiation), replication [2]: NR (No replication)
- A: Pseudomonas aeruginosa (no irradiation), replication [3]: R (Bacteria can replicate after the treatment)
- B: Pseudomonas aeruginosa (irradiation), replication [3]: NR (No replication)
- E: Staphylococcus aureus MU500 (no irradiation), replication [4]: R (Bacteria can replicate after the treatment)
- F: Staphylococcus aureus MU500 (irradiation), replication [4]: NR (No replication)
